Source: patent US20240130988A1, “Use of stilbene compounds in the preparation of anti-tumor drugs” (Guangzhou AnHao Pharmaceutical Technology CO., LTD., priority 2022, published 2024)
Marks after values point to notes of the source that are not given here.

Assays:
[1] = test system: nonfusion human umbilical vein endothelial cells (HUVEC); assay: TMT quantitative proteomics on nonfusion HUVEC; type: cell-based; details: 10 μM; for Differentially expressed proteins: more than 1.5 times or less than 0.67 times vs control; for Down-regulation / Up-regulation: number of proteins
Method: Nonfusion human umbilical vein endothelial cells (HUVEC) were used to simulate new tumor blood vessels, while confluent HUVECs were used to simulate normal blood vessels, to construct experimental models. Two different HUVECs were treated with the compound at the same dosage of 10 μM, to simulate the fusion cell state, and proteome samples were prepared. After preparation of peptide segments, the segments were labelled with TMT, and a quantitative proteomics analysis was carried out. The efficiency of TMT labeling was higher than 99.4%, and a total of 28372 peptide segments from 4934 proteins were characterized using a strict 1% FDR limit. Among them, 4909 quantifiable proteins were identified, indicating reliable quality. The nonfusion treatment groups and the fusion treatment groups were compared with their respective control groups, and the control group was used as a reference, with a significant difference of more than 1.5 times or less than 0.67 times as the protein score standard.
The total cell proteins of the samples in nonfusion cell groups and fusion cell groups were extracted separately, and 2 μg of protein samples were subjected to quality analysis, The quantitative proteomics experiments were carried out, and the protein concentration assay was performed by quantitative grayscale measurement.
Data analysis: The human protein database (Scientific name: Homo sapiens, 9606) was downloaded from UniProt, MaxQuant (v 1.5.5.1) search engine was used to search for the database. A total of 4934 proteins (4909 quantitative proteins) and 28372 peptide segments were identified by TMT quantitative proteomics experiments, with a labeling efficiency of more than 99%, and the complete digestion occupied 86.3%.

human lung cancer A549 = assay: Human lung cancer A549 transplanted tumors in nude mice; type: in vivo, BALB/C nude mice; details: A549, 400 mg/kg ig × 14; for inhibition in vivo at 400 mg/kg: Mus musculus, po, read-out: Tumor inhibitory rate %
Method: In this experiment, a human lung cancer A549 model transplanted into nude mice was selected to study the anti-tumor effect of test compounds. The mice were treated at a dosage of 400 mg/kg by gavage for 14 days, and the tumor inhibition rate against human lung cancer A549 was measured.
Preparation: The compound was prepared as the solution at the desired concentration with distilled water, prior to administration.
Animal strain: BALB/C nude mice (SPF grade), weight: 19-21 g, gender: male. Number of animals in each treatment group: 8; Number of animals in the control group: >12.
(§1) Lung cancer A549 tumor blocks with good growth were chosen and cut into uniform small pieces of 3 mm under sterile conditions, and then subcutaneously inoculated into the right armpit of each mouse with a cannula. These mice were divided into 9 groups, 8 mice for each treatment group, while more than 12 mice were included in the control group.
14 days after inoculation, the average volume of the tumor mass was about 100 mm^3. The animals were regrouped based on the size of the tumor, and the mice with tumors that were too large and too small were eliminated. For each group, the average volume of tumors was basically the same, and then the mice were treated with test compounds. The mice in the treatment groups were administered once a day by gavage for 14 successive days, at a dosage of 0.5 mL/20 g body weight; the mice in the control group were given the same volume of physiological saline. From the 14th day of inoculation, the long diameter a (mm) of the tumor, together with the perpendicular short diameter b (mm), was measured using a digital electronic caliper, twice a week. The calculation formula of tumor volume is: TV=ab^2/2, and the formula for calculating the relative tumor volume is RTV=Vt/Vo, wherein Vo denotes the tumor volume measured when the mice were divided into groups (i.e. d1), and Vt is the tumor volume from each measurement.
(§2) The result determination is based on the following formula: […]

[2] = test system: human gastric cancer MGC803; assay: Human gastric cancer MGC803 transplanted tumor in nude mice; type: in vivo, BALB/C nude mice; details: MGC803, 200 mg/kg ip × 14
Method: A human gastric cancer MGC803 model transplanted into nude mice was used in the experiment to investigate the anti-tumor effect of test compounds.
Preparation: The compound was prepared as the injection at the desired concentration with sterile normal saline, prior to administration.
Animal strain: BALB/C nude mice (SPF grade), weight: 19-21 g, gender: male.
Number of animals in each treatment group: 8; number of animals in the control group: >12.
as §1, with “The” for “Lung cancer A549”, “blocks of human gastric cancer MGC803” for “blocks”, “were” for “were chosen and”
14 days after inoculation, the average volume of the tumor block was about 100 mm^3. The animals were regrouped based on the size of the tumor, and the animals with tumors that were too large and too small were sifted out. For each group, the average volume of tumors was basically the same, and then the mice were initially treated with test compounds. The mice were intraperitoneally injected once a day for 14 days, at a dosage of 0.2 mL/20 g body weight. From the 14th day of inoculation, the long diameter a (mm) of the tumor, together with the perpendicular short diameter b (mm), was measured using a digital electronic caliper, twice a week. The calculation formula of tumor volume is: TV=ab^2/2, and the formula for calculating the relative tumor volume is RTV=Vt/Vo, wherein Vo denotes the tumor volume measured when the mice were divided into groups(i.e. d1), and Vt is the tumor volume from each measurement.
as §2

SMILES | Differentially expressed proteins [1] | Down-regulation [1] | Up-regulation [1] | RTV (d 22) (human lung cancer A549) | inhibition in vivo at 400 mg/kg (human lung cancer A549) [%] | RTV (d 18) [2] | Tumor inhibitory rate % [2] | Tumor inhibitory rate % (human lung cancer A549) | Tumor inhibitory rate % ([2]; listed as compound 6)
COc1ccc(/C=C(/C(=O)O)c2cc(OC)c(OC)c(OC)c2)c(F)c1O [Compound 9, (E)-3-(2-fluoro-3-hydroxy-4-methoxyphenyl)-2-(3,4,5-trimethoxyphenyl)acrylic acid] | 296 | 291 | 5 | – | – | – | – | – | –
COc1cc(/C=C(/C(=O)O)c2cc(OC)c(OC)c(OC)c2)cc(OC)c1 [Compound 3, (E)-3-(3,5-dimethoxyphenyl)-2-(3,4,5-trimethoxyphenyl)acrylic acid] | 318 | 312 | 6 | 4.52 ± 0.76 | 61.5 | 4.79 ± 0.54 | 58.42^## % | – | –
COc1cc(/C=C(/C(=O)[O-])c2cc(OC)c(OC)c(OC)c2)cc(OC)c1F.[K+] [Compound 10] | 315 | 309 | 6 | – | – | 4.21 ± 0.58 | 63.45^# % | – | –
COc1cc(/C(=C\c2cc(O)c(OC)c(F)c2)C(=O)O)cc(OC)c1OC [Compound 8, (E)-3-(5-fluoro-3-hydroxy-4-methoxyphenyl)-2-(3,4,5-trimethoxyphenyl)acrylic acid] | 317 | 311 | 6 | 4.22 ± 0.75 | 64.1 | 4.59 ± 0.47 | 60.16^## % | – | –
COc1ccc(/C=C(/C(=O)O)c2cc(OC)c(OC)c(OC)c2)cc1F [Compound 4, (E)-3-(3-fluoro-4-methoxyphenyl)-2-(3,4,5-trimethoxyphenyl)acrylic acid] | 307 | 302 | 5 | 5.23 ± 1.43 | 55.5 | – | – | – | –
COc1cc(/C(=C\c2cc(O)c(OC)c(O)c2)C(=O)O)cc(OC)c1OC [Compound 11, (E)-3-(3,5-dihydroxy-4-methoxyphenyl)-2-(3,4,5-trimethoxyphenyl)acrylic acid] | 317 | 306 | 11 | 4.07 ± 0.51 | 65.4 | 4.72 ± 0.61 | 59.03^## % | – | –
COc1ccc(/C=C(/C(=O)O)c2cc(OC)c(OC)c(OC)c2)c(O)c1O [Compound 1, (E)-3-(2,3-dihydroxy-4-methoxyphenyl)-2-(3,4,5-trimethoxylphenyl)acrylic acid] | 323 | 296 | 7 | 4.27 ± 0.48 | 63.6 | 5.87 ± 0.63 | 49.05^## % | – | –
COc1ccc(/C=C(/C(=O)O)c2cc(OC)c(OC)c(OC)c2)cc1O [Compound 6, (E)-3-(3-hydroxy-4-methoxyphenyl)-2-(3,4,5-trimethoxyphenyl)acrylic acid] | 312 | 307 | 5 | 2.51 ± 0.94 | 78.6 | 3.43 ± 0.51 | 70.23% | best inhibitory effect on lung cancer | best inhibitory effect on gastric cancer
